Results taken from patent publication US20260216174A1, “TREATMENT OF ER+ BREAST CANCER COMPRISING HOMOLOGOUS RECOMBINATION DEFICIENCY USING PARG INHIBITOR” (IDEAYA BIOSCIENCES, INC., priority 2023, published 2026).

Assays:
Assay type in all cases: cell-based
[1] = tested on: CAL-85-1; test: Cellular antiproliferative response, Assay 2 (nuclear dye intensity); conditions: Homo sapiens, 240 h; CAL-85-1, HR mutant BRCA2, Assay 2, 10-day incubation; read-out: Log10 (IC50) (converted)
Protocol: Compound A was tested in a cell line panel. Cell lines were grown in RPMI 1640, 10% FBS, 2 mM L-alanyl-L-glutamine, 1 mM Na pyruvate, or a special medium. Cells were seeded into 384-well plates and incubated in a humidified atmosphere of 5% CO2 at 37° C. The following day, Compound A was added by serial dilution in half-log steps from the highest test concentration of 30 μM and assayed over ten concentrations. A time zero untreated cell plate was also generated. At seven days post-seeding, the growth media were replaced, and the plates were re-dosed with the test compound. After a 10-day incubation period, cells were fixed and stained with a fluorescent nuclear dye. Automated fluorescence microscopy was carried out using a Molecular Devices ImageXpress Micro XL high-content imager, and images were collected with a 4× objective. 16-bit TIFF images were acquired and analyzed with MetaXpress 5.1.0.41 software.
Cell proliferation effects of Compound A was measured using the fluorescent intensity of the incorporated nuclear dye as a percent of the control (POC), where POC=(Ix/I0)×100. Ix=nuclear intensity at concentration x and I0=average nuclear intensity of the untreated vehicle wells. Cellular IC50 was calculated using nonlinear regression to a sigmoidal single-site dose response model. Curve fitting, calculations, and report generation was performed using a custom data reduction engine and MathIQ based software (AIM).

[2] = tested on: MDA-MB-453; test: Cellular antiproliferative response, Assay 1 (nuclear counts); conditions: Homo sapiens; MDA-MB-453, Wild Type, Assay 1, 5 population doublings; read-out: Log10 (IC50) (converted)
Protocol: (§1) Compound A was tested in a cell line panel. Cell lines were obtained from several different sources such as the American Type Culture Collection, Korean Cell Line Bank and Japanese Collection of Research Bioresources Cell Bank and cultured in the media as recommended by the source cell banks. All cell lines were grown at 37° C. at 5% CO2 and were passaged once or twice weekly with 0.25% Trypsin-EDTA (Fisher Scientific #25200056) and re-plated in 75 cm^2 culture flasks (Corning #3814).
(§2) The cell lines were plated in 96 well plates (Corning #3904) at density of 1000 cells/well. DMSO dissolved Compound A was then added using the TECAN liquid dispenser to generate a 9-point dose curve with a 3-fold dilution and 10 μM starting, top concentration. After 5 population doublings, the cell lines were treated with 5 μM of Vybrant DyeCycle Green (Life Technologies #V35004), incubated for 60 minutes and imaged using the Incucyte® S3 system to determine the nuclear counts. For all cell lines, the nuclear counts were normalized to the DMSO treated wells and the IC50 was determined using the standard four parametric dose response equation in GraphPad Prism Software.

[3] = tested on: T-47D; test: as above; conditions: Homo sapiens, T47D, Wild Type, Assay 1, 5 population doublings, read-out: Log10 (IC50) (converted)
Protocol: as §1, §2

[4] = tested on: Hs 578T; test: as above; conditions: Homo sapiens, Wild Type, Assay 1, 5 population doublings, read-out: Log10 (IC50) (converted)
Protocol: as §1, §2

[5] = tested on: BT-549; test: as above; conditions: Homo sapiens; BT-549, Wild Type, Assay 1, 5 population doublings; read-out: Log10 (IC50) (converted)
Protocol: as §1, §2

[6] = tested on: KPL-1; test: as above; conditions: KPL-1, Wild Type, Assay 1, 5 population doublings; read-out: Log10 (IC50) (converted)
Protocol: as §1, §2

[7] = tested on: MCF7; test: as above; conditions: Homo sapiens; MCF7, Wild Type, Assay 1, 5 population doublings; read-out: Log10 (IC50) (converted)
Protocol: as §1, §2

[8] = tested on: SK-BR-3; test: as above; conditions: Homo sapiens; SK-BR-3, Wild Type, Assay 1, 5 population doublings; read-out: Log10 (IC50) (converted)
Protocol: as §1, §2

[9] = tested on: CAMA-1; test: as above; conditions: Homo sapiens; CAMA-1, Wild Type, Assay 1, 5 population doublings; read-out: Log10 (IC50) (converted)
Protocol: as §1, §2

[10] = tested on: MDA-MB-415; test: as above; conditions: Homo sapiens; MDA-MB-415, Wild Type, Assay 1, 5 population doublings; read-out: Log10 (IC50) (converted)
Protocol: as §1, §2

[11] = tested on: BT-20; test: as above; conditions: Homo sapiens; BT-20, Wild Type, Assay 1, 5 population doublings; read-out: Log10 (IC50) (converted)
Protocol: as §1, §2

[12] = tested on: MDA-MB-231; test: as above; conditions: Homo sapiens; MDA-MB-231, Wild Type, Assay 1, 5 population doublings; read-out: Log10 (IC50) (converted)
Protocol: as §1, §2

IC50 [2]: 2020 nM
IC50 [3]: 3090 nM
IC50 [5]: 983 nM
IC50 [7]: 2380 nM
IC50 [8]: 131 nM
IC50 [10]: 2830 nM
IC50 [11]: 2410 nM
IC50 [12]: 850 nM
Structure (SMILES): C[C@H]1CN(c2cc(S(=O)(=O)NC3(C)CC3)cc3c2cnn3-c2nnc(C(F)F)s2)C[C@H](C)N1 [Compound A, 1-(5-(difluoromethyl)-1,3,4-thiadiazol-2-yl)-4-((3S,5S)-3,5-dimethylpiperazin-1-yl)-N-(1-methylcyclopropyl)-1H-indazole-6-sulfonamide]
IC50 [1]: 100 nM
IC50 [4]: 3000 nM
IC50 [6]: 431 nM
IC50 [9]: 844 nM
